Like-named read-outs stand apart in the source and are kept apart here.
Tests used:
JAK2 = JAK2 (Homo sapiens (Human), UniProt O60674); assay: Radiometric assay of enzymatic JAK2 activity by Reaction Biology Corp.; type: biochemical
UKE-1 cells = assay: UKE-1 cell viability assay (CellTiter Blue); conditions: UKE1, 72 h, read-out: UKE-1 cell growth inhibition IC50
Experimental: Suspension cells were seeded at 20,000 cells per well. […] Cell viability data were analyzed using GraphPad Prism6.

JAK2 KD [1] = target: T1, JAK2 KD (Homo sapiens (Human), UniProt O60674); assay: Transient expression of JAK2 KD in Expi293F cells, immunoblot densitometry; type: cell-based
Experimental: The construct was expressed using a CMV promoter and contained a Hiss N-terminal affinity tag followed by a TEV cleavage site. Expi293F cells (Invitrogen) were grown, maintained, and treated in shaking culture at 37° C. with 8% CO2 in Expi293 medium (Invitrogen). Recombinant JAK2 was expressed in Expi293F cells using Transporter 5 transfection reagent as described by the manufacturer (PolySciences). One hour after adding the plasmid:transfection complex, varying concentrations of JAK2 inhibitor or transcription enhancer were added. The transfection proceeded for 24 hours before harvest.
Previously, JAK2 KD has been predominantly purified from insect cells; but this process takes several weeks to generate and amplify the baculovirus to produce large enough quantities of purified protein.

JAK2 KD [2] = target: T1, JAK2 KD; assay: Differential scanning fluorimetry (DSF) binding studies with purified JAK2 KD
Description: To assess the suitability of purified JAK2 KD for SAR studies for drug development campaigns, three series of JAK2 inhibitors (FIG. 2A-C) were subjected to binding studies by differential scanning fluorimetry (DSF).

SRC = SRC (Homo sapiens (Human), UniProt P12931); conditions: selectivity; cited from earlier work
[3] = read-out: Biochemical inhibition IC50
[4] = radiometric assay, ± SD from two data sets, read-out: Biochemical inhibition IC50

Chain of JAK2 (O60674 whole entry): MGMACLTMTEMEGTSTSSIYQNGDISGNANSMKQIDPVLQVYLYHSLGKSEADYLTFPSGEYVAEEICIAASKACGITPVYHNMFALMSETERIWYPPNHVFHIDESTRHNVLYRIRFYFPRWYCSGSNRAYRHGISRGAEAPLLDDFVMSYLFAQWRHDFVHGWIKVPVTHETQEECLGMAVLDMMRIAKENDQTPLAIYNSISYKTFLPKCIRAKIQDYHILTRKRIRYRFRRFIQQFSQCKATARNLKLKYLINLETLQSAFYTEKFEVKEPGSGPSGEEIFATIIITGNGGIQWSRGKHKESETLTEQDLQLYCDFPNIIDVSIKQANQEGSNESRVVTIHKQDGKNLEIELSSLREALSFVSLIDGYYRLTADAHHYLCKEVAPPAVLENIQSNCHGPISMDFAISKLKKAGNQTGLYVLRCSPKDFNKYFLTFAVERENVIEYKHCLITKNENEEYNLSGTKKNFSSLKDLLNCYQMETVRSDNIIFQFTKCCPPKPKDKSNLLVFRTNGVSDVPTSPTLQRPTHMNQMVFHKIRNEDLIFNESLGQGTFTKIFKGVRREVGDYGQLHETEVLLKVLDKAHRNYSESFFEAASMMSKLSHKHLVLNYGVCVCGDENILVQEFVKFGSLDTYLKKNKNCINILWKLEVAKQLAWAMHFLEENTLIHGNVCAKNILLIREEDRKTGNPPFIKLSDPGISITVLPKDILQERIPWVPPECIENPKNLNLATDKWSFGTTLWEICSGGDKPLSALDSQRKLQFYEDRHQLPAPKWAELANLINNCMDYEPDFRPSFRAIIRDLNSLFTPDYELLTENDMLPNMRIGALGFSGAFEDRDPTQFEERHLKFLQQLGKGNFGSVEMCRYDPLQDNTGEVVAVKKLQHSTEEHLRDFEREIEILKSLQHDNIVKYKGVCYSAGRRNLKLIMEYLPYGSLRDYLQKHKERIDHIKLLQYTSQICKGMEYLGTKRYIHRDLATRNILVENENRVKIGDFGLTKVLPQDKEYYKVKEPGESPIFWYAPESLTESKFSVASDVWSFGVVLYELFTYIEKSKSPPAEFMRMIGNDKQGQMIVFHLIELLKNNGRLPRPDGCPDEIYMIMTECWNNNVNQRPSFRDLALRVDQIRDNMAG
T1 sequence (O60674 840-1132): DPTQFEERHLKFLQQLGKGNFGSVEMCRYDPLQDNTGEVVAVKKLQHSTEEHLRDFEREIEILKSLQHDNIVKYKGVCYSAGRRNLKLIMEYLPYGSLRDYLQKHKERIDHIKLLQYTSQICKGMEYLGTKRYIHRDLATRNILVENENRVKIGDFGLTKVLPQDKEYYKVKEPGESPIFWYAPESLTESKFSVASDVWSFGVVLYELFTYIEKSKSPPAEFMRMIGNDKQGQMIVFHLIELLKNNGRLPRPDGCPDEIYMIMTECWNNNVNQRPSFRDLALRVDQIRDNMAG
Chain of SRC (P12931 whole entry, species assumed): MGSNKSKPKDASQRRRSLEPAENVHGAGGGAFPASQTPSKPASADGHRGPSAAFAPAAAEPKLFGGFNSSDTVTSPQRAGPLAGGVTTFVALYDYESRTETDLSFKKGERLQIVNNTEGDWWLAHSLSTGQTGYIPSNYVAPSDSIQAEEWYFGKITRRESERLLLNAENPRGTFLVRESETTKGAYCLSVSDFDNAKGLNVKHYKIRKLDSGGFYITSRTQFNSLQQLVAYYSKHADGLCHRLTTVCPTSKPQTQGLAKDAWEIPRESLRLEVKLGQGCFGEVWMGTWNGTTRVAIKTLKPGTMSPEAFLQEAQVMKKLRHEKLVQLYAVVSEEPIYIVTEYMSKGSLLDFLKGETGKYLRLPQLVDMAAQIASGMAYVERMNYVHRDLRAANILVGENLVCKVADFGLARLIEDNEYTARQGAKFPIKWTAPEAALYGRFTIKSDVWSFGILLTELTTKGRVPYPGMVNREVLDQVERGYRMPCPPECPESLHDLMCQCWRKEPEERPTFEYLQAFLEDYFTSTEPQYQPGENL

Row | Compound | IC50 (JAK2; [3]) [nM] | IC50 (UKE-1 cells) [nM] | other results
1 | N#CCCn1cc(-c2nc(Nc3ccc(C4CCNCC4)cc3)nc3[nH]ccc23)cn1 [Compound 2, 3-(4-(2-((4-(Piperidin-4-yl)phenyl)amino)-7H-pyrrolo[2,3-d]pyrimidin-4-yl)-1H-pyrazol-1-yl)propanenitrile] | 0.13 ± 0.048 | 4500 ± 5900 | 
2 | C=CCCn1cc(-c2nc(Nc3ccc(C4CCNCC4)cc3)nc3[nH]ccc23)cn1 [Compound 3, 4-(1-(But-3-en-1-yl)-1H-pyrazol-4-yl)-N-(4-(piperidin-4-yl)phenyl)-7H-pyrrolo[2,3-d]pyrimidin-2-amine] |  | 620 ± 40 | IC50 (JAK2; [4]): 0.26 ± 0.04 nM
3 | Cc1cnc(Nc2ccc(OCCN3CCCC3)cc2)nc1Nc1cccc(S(=O)(=O)NC(C)(C)C)c1 [Fedratinib, reference compound] |  | 660 ± 60 | 
4 | CCCC(CCC)C(=O)O [valproic acid] |  |  | JAK2 KD expression increase over ruxolitinib alone (JAK2 KD [1]; HDAC inhibitor during expression alongside ruxolitinib): four-fold
5 | Cc1cnc(Nc2ccc(C3CCN(C)CC3)c(F)c2)nc1Nc1ccc(F)c(NS(=O)(=O)C(C)(C)C)c1 [Compound 4, N-(2-Fluoro-5-((2-((3-fluoro-4-(1-methylpiperidin-4-yl)phenyl)amino)-5-methylpyrimidin-4-yl)amino)phenyl)-2-methylpropane-2-sulfonamide] |  |  | IC50 (JAK2; [4]): 6.5 ± 3.5 nM
6 | CCCC(=O)O [butyric acid] |  |  | JAK2 KD expression increase over ruxolitinib alone (JAK2 KD [1]): four-fold
7 | Cc1cnc(Nc2ccc(C3CCN(C)CC3)c(F)c2)nc1Nc1ccc2c(c1)N(S(=O)(=O)C(C)(C)C)CC2 [Compound 7, N^4-(1-(tert-Butylsulfonyl)indolin-6-yl)-N^2-(3-fluoro-4-(1-methylpiperidin-4-yl)phenyl)-5-methylpyrimidine-2,4-diamine] | 3.6 ± 1.1 | 210 ± 20 | 
8 | N#CC[C@H](C1CCCC1)n1cc(-c2nc(Nc3ccc(C4CCNCC4)cc3)nc3[nH]ccc23)cn1 [(R)-1, (R)-3-Cyclopentyl-3-(4-(2-((4-(piperidin-4-yl)phenyl)amino)-7H-pyrrolo[2,3-d]pyrimidin-4-yl)-1H-pyrazol-1-yl)propanenitrile] | 0.15 ± 0.03 |  | IC50 (JAK2): < 0.15 nM
9 | N#CCC(C1CCCC1)n1cc(-c2nc(Nc3ccc(C4CCNCC4)cc3)nc3[nH]ccc23)cn1 (racemic) [(rac)-1] |  |  | Binding potential ΔTm (JAK2 KD [2]): 11.8 ± 0.05 °C
10 | N#CC[C@H](C1CCCC1)n1cc(-c2ncnc3[nH]ccc23)cn1 [Ruxolitinib, reference compound] |  |  | Inhibitory activity for JAK2 over SRC (SRC): three orders of magnitudes higher
11 | N#CC[C@@H](C1CCCC1)n1cc(-c2nc(Nc3ccc(C4CCNCC4)cc3)nc3[nH]ccc23)cn1 [(S)-1, (S)-3-Cyclopentyl-3-(4-(2-((4-(piperidin-4-yl)phenyl)amino)-7H-pyrrolo[2,3-d]pyrimidin-4-yl)-1H-pyrazol-1-yl)propanenitrile] | 0.099 ± 0.02 |  | 
12 | Cc1cnc(Nc2cc(F)c(C3CCN(C)CC3)c(F)c2)nc1Nc1ccc(F)c(NS(=O)(=O)C(C)(C)C)c1 [Compound 5, N-(5-((2-((3,5-Difluoro-4-(1-methylpiperidin-4-yl)phenyl)amino)-5-methylpyrimidin-4-yl)amino)-2-fluorophenyl)-2-methylpropane-2-sulfonamide] |  | 150 ± 10 | IC50 (JAK2; [4]): 8.2 ± 5.7 nM

— US20240140952A1, “INHIBITORS AND DEGRADERS OF JANUS KINASE 2” (H. LEE MOFFITT CANCER CENTER AND RESEARCH INSTITUTE, INC., priority 2021, published 2024)
